Tests used:
DU-145 = experiment: Anticancer activity against human DU145 cells by MTT assay; format: functional, cell-based
[1] = Anticancer activity against human IMR32 cells by MTT assay; format: functional, cell-based, IMR-32
A549 = experiment: Anticancer activity against human A549 cells by MTT assay; format: functional, cell-based
[2] = Inhibition of rat intestinal alpha-glucosidase using nitrophenyl-alpha-D-glucopyranoside by spectrophotometrically
HepG2 = experiment: Anticancer activity against human HepG2 cells by MTT assay; format: functional, cell-based
MCF7 = experiment: Anticancer activity against human MCF7 cells by MTT assay; format: functional, cell-based
[3] = Homo sapiens, IMR-32, read-out: IC50
[4] = Homo sapiens, A549, read-out: IC50
[5] = Homo sapiens, HepG2, read-out: IC50
[6] = Homo sapiens, MCF7, read-out: IC50
[7] = Homo sapiens, DU-145, read-out: IC50

Row | Structure (SMILES) | IC50 (DU-145; du-145) | IC50 (A549; [4]) [µM] | IC50 [2] | IC50 (HepG2; hepg2) | IC50 (MCF7; mcf7) | IC50 (HepG2; [5]) [µM] | IC50 (MCF7; [6]) [µM] | IC50 (A549; a549) | IC50 ([2]; read-out: IC50) [µM] | IC50 (DU-145; [7]) [µM] | IC50 [1, 3] [µM] | IC50 ([1]; imr-32)
1 | CC1(C)CCc2cc(C(=O)/C=C/c3ccc(OCc4cn(-c5ccc(Cl)cc5)nn4)cc3)c(O)cc2O1 | Not Active | 75.5 | Not Active | Not Active | Not Active |  |  |  |  |  | 92.1 | 
2 | CC1(C)CCc2cc(C(=O)/C=C/c3ccc(OCc4cn(-c5ccc(Br)cc5)nn4)cc3)c(O)cc2O1 | Not Active | 80 | Not Active | Not Active | Not Active |  |  |  |  |  | 69.4 | 
3 | COc1ccc(-n2cc(COc3ccc(/C=C/C(=O)c4cc5c(cc4O)OC(C)(C)CC5)cc3)nn2)c([N+](=O)[O-])c1 | Not Active | 99.5 | Not Active | Not Active | Not Active |  |  |  |  |  |  | Not Active
4 | CC(=O)c1ccc(-n2cc(COc3ccc(/C=C/C(=O)c4cc5c(cc4O)OC(C)(C)CC5)cc3)nn2)cc1 | Not Active | 66.3 | Not Active | Not Active |  |  | 182 |  |  |  |  | Not Active
5 | Cc1ccc(-n2cc(COc3ccc(/C=C/C(=O)c4cc5c(cc4O)OC(C)(C)CC5)cc3)nn2)cc1Br | Not Active | 125 | Not Active |  | Not Active | 117 |  |  |  |  |  | Not Active
6 | CC1(C)CCc2c(ccc(C(=O)/C=C/c3ccc(OCc4cn(-c5ccc(Br)cc5)nn4)cc3)c2O)O1 | Not Active | 129 | Not Active |  | Not Active | 136 |  |  |  |  | 117 | 
7 | COc1ccc(-n2cc(COc3ccc(/C=C/C(=O)c4ccc5c(c4O)CCC(C)(C)O5)cc3)nn2)c([N+](=O)[O-])c1 | Not Active |  | Not Active |  |  | 120 | 73.1 | Not Active |  |  | 132 | 
8 | CCCCCCCCn1cc(COc2ccc(/C=C/C(=O)c3cc4c(cc3O)OC(C)(C)CC4)cc2)nn1 | Not Active | 50.8 | Not Active |  | Not Active | 127 |  |  |  |  | 7.09 | 
9 | C[C@H]1O[C@H](O[C@H]2[C@H](O)[C@@H](O)[C@@H](O[C@H]3[C@H](O)[C@@H](O)C(O)O[C@@H]3CO)O[C@@H]2CO)[C@H](O)[C@@H](O)[C@@H]1N[C@H]1C=C(CO)[C@@H](O)[C@H](O)[C@H]1O (stereo partly specified) [ACARBOSE] | Not Active |  |  | Not Active | Not Active |  |  | Not Active | 23.9 |  |  | Not Active

More lines, in order of falling IC50 (HepG2; [5]), values ahead:

Row | IC50 (DU-145; du-145) | IC50 (A549; [4]) [µM] | IC50 [2] | IC50 (HepG2; hepg2) | IC50 (MCF7; mcf7) | IC50 (HepG2; [5]) [µM] | IC50 (MCF7; [6]) [µM] | IC50 (A549; a549) | IC50 ([2]; read-out: IC50) [µM] | IC50 (DU-145; [7]) [µM] | Structure (SMILES) | IC50 [1, 3] [µM] | IC50 ([1]; imr-32)
10 | Not Active |  | Not Active |  |  | 115 | 145 | Not Active |  |  | Cc1c(-n2cc(COc3ccc(/C=C/C(=O)c4ccc5c(c4O)CCC(C)(C)O5)cc3)nn2)cccc1[N+](=O)[O-] | 73.5 | 
11 | Not Active | 137 | Not Active |  | Not Active | 115 |  |  |  |  | CCc1ccccc1-n1cc(COc2ccc(/C=C/C(=O)c3cc4c(cc3O)OC(C)(C)CC4)cc2)nn1 |  | Not Active
12 | Not Active |  | Not Active |  | Not Active | 110 |  | Not Active |  |  | Cc1ccc(-n2cc(COc3ccc(/C=C/C(=O)c4ccc5c(c4O)CCC(C)(C)O5)cc3)nn2)cc1Br |  | Not Active
13 | Not Active | 65.9 | Not Active |  |  | 109 | 176 |  |  |  | Cc1c(-n2cc(COc3ccc(/C=C/C(=O)c4cc5c(cc4O)OC(C)(C)CC5)cc3)nn2)cccc1[N+](=O)[O-] |  | Not Active
14 | Not Active | 35.8 | Not Active |  | Not Active | 109 |  |  |  |  | CC1(C)CCc2cc(C(=O)/C=C/c3ccc(OCc4cn(Cc5ccc([N+](=O)[O-])cc5)nn4)cc3)c(O)cc2O1 | 108 | 
15 | Not Active |  |  |  | Not Active | 102 |  | Not Active | 128 |  | CC1(C)CCc2c(ccc(C(=O)/C=C/c3ccc(OCc4cn(-c5ccc(Cl)cc5)nn4)cc3)c2O)O1 |  | Not Active
16 | Not Active | 91.3 |  |  | Not Active | 95.8 |  |  | 74.9 |  | CCCCCn1cc(COc2ccc(/C=C/C(=O)c3cc4c(cc3O)OC(C)(C)CC4)cc2)nn1 |  | Not Active
17 | Not Active | 149 | Not Active |  |  | 91.4 | 171 |  |  |  | CC(=O)c1ccc(-n2cc(COc3ccc(/C=C/C(=O)c4ccc5c(c4O)CCC(C)(C)O5)cc3)nn2)cc1 | 89.5 | 
18 | Not Active |  | Not Active |  | Not Active | 74.1 |  | Not Active |  |  | CCCCCCCCn1cc(COc2ccc(/C=C/C(=O)c3ccc4c(c3O)CCC(C)(C)O4)cc2)nn1 |  | Not Active
19 |  | 69.9 | Not Active |  |  | 69.9 | 17.1 |  |  | 29.9 | CC1(C)CCc2c(ccc(C(=O)/C=C/c3ccc(OCc4cn(Cc5ccc([N+](=O)[O-])cc5)nn4)cc3)c2O)O1 | 17.3 | 
20 | Not Active | 112 |  |  | Not Active | 67.8 |  |  | 67.8 |  | CCc1ccccc1-n1cc(COc2ccc(/C=C/C(=O)c3ccc4c(c3O)CCC(C)(C)O4)cc2)nn1 |  | Not Active
21 | Not Active | 48.6 |  |  |  | 9.82 | 191 |  | 102 |  | CCCCCn1cc(COc2ccc(/C=C/C(=O)c3ccc4c(c3O)CCC(C)(C)O4)cc2)nn1 |  | Not Active
22 |  | 69.3 | Not Active |  |  | 1.05 |  |  |  | 17.7 | COc1cccc2c1C(=O)c1c(O)c3c(c(O)c1C2=O)C[C@@](O)(C(=O)CO)C[C@@H]3O[C@H]1C[C@H](N)[C@H](O)[C@H](C)O1 [DOXORUBICIN] | 44.4 | 

Source: ChEMBL document CHEMBL3414566, “Synthesis, docking and ADMET studies of novel chalcone triazoles for anti-cancer and anti-diabetic activity” (Eur J Med Chem, 2015)
